Experimental data published in US20020137929A1, “1 - (3-heterocyclylphenyl) isothiourea, -isourea, -guanidine and -amidine herbicidal agents” (Intellectual Property Department, BASF Aktiengesellschaft, priority 1998, published 2002).

Columns and labels:
AMBEL (Ragweed, Common) [1] = assay: Postemergence herbicidal evaluation; type: in vivo, Ambrosia artemisifolia; conditions: postemergence
Procedure, shortened: (§1)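 ~2-wk seedlings; postemergence spray, 40 psi; vehicle 1:1 acetone:water + 0.5% Tween 20; rate ≈0.0156–0.500 kg/ha; greenhouse hold; scored 4–5 wk after treatment, 0–9 scale vs control; repeat tests averaged.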

[2] = test system: IPOHE (Morningglory, Ivyleaf); assay: Postemergence herbicidal evaluation; type: in vivo, Ipomoea hederacea; conditions: postemergence
Procedure, shortened: as §1

[3] = test system: GLXMAW (Soybean, Williams); assay: Postemergence herbicidal evaluation; type: in vivo, Glycine max, (L.) Merr. cv Williams; conditions: postemergence
Procedure, shortened: as §1

ZEAMX (Corn, Field) = assay: Postemergence herbicidal evaluation; type: in vivo, Zea mays; conditions: postemergence
Procedure, shortened: as §1

ABUTH (Velvetleaf) = assay: Preemergence herbicidal evaluation; type: in vivo, Abutilon theophrasti; conditions: rated 4-5 weeks after treatment
Procedure, shortened: (§2)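 Test compound, dissolved in aqueous acetone, was sprayed over planted soil cups at an equivalent of about 0.0156 to 0.500 kg/ha; seeds had been mixed with potting soil. Greenhouse growth followed, with visual 0-9 scoring of injury at four to five weeks.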

AMBEL (Ragweed, Common) [4] = assay: Preemergence herbicidal evaluation; type: in vivo, Ambrosia artemisifolia; conditions: rated 4-5 weeks after treatment
Procedure, shortened: as §2

CASOB (Sicklepod) = assay: Preemergence herbicidal evaluation; type: in vivo, Cassia obtusifolia; conditions: rated 4-5 weeks after treatment
Procedure, shortened: as §2

GALAP (Galium) = assay: Preemergence herbicidal evaluation; type: in vivo, Galium aparine; conditions: rated 4-5 weeks after treatment
Procedure, shortened: as §2

ECHCG (Barnyardgrass) = assay: Preemergence herbicidal evaluation; type: in vivo, Echinochloa crus-galli; conditions: rated 4-5 weeks after treatment
Procedure, shortened: as §2

SETVI (Foxtail, Green) = assay: Preemergence herbicidal evaluation; type: in vivo, Setaria viridis; conditions: rated 4-5 weeks after treatment
Procedure, shortened: as §2

[5] = test system: GLXMAW (Soybean, Williams); assay: Preemergence herbicidal evaluation; type: in vivo, Glycine max, (L.) Merr. cv Williams; conditions: rated 4-5 weeks after treatment
Procedure, shortened: as §2

CYPSE (Flatsedge) = assay: Preemergence weed control under flooded paddy conditions; type: in vivo, Cyperus serotinus; conditions: rated 3-4 weeks after treatment
Procedure, shortened: (§3)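 Greenhouse paddy assay. Acetone/water (50/50 v/v) solutions dosed into flood water, equivalent to about 0.0313 to 0.500 kg/ha active ingredient, over seeds planted 0.5 cm deep in silt loam. Score: 0-9 visual, based on stand, vigor, malformation, size and chlorosis, 3 to 4 weeks after treatment.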

[6] = test system: SAGPY (Arrowhead (Pygmaea)); assay: as above; type: in vivo, Sagittaria pygmaea; conditions: rated 3-4 weeks after treatment
Procedure, shortened: as §3

[7] = test system: ECHORC (Watergrass (Calif.)); assay: Postemergence weed control under flooded paddy conditions; type: in vivo, Echinochloa oryzoides; conditions: postemergence weeds, rated 3 to 4 weeks after treatment
Procedure, shortened: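 Flood-water application, about 0.0313–0.500 kg/ha a.i. in aqueous/acetone 50/50 v/v; water depth 1.5–3 cm throughout. Weeds 3–5 cm, rice 1.5–2.5 leaf. Greenhouse; 0–9 visual rating vs control at 3–4 wk.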

## COC(=O)[C@H](Cc1ccccc1)N1C(=O)CS/C1=N/c1cc(-n2c(=O)cc(C(F)(F)F)n(C)c2=O)c(F)cc1Cl [Compound 72, Methyl α-benzyl-2-{{2-chloro-5-[3,6-dihydro-3-methyl-2,6-dioxo-4-(trifluoromethyl)-1(2H)-pyrimidinyl]-4-fluorophenyl]imino}-4-oxo-3-thiazolidineacetate, L-]
AMBEL (Ragweed, Common) [1]; rate 0.0158 kg/ha
  AMBEL herbicidal rating: 5.0
AMBEL (Ragweed, Common) [1]; rate 0.0315 kg/ha
  AMBEL herbicidal rating: 9.0
AMBEL (Ragweed, Common) [1]; rate 0.0630 kg/ha
  AMBEL herbicidal rating: 6.0
[2]; rate 0.0158 kg/ha
  IPOHE herbicidal rating: 9.0
[2]; rate 0.0315 kg/ha
  IPOHE herbicidal rating: 7.0
[2]; rate 0.0630 kg/ha
  IPOHE herbicidal rating: 9.0
[3]; rate 0.0158 kg/ha
  GLXMAW herbicidal rating: 5.5
[3]; rate 0.0315 kg/ha
  GLXMAW herbicidal rating: 5.5
[3]; rate 0.0630 kg/ha
  GLXMAW herbicidal rating: 7.0
ZEAMX (Corn, Field); rate 0.0158 kg/ha
  ZEAMX herbicidal rating: 4.0
ZEAMX (Corn, Field); rate 0.0315 kg/ha
  ZEAMX herbicidal rating: 4.5
ZEAMX (Corn, Field); rate 0.0630 kg/ha
  ZEAMX herbicidal rating: 6.5
ABUTH (Velvetleaf); rate 0.0156 kg/ha
  Preemergence herbicidal rating ABUTH: 2.0
ABUTH (Velvetleaf); rate 0.0313 kg/ha
  Preemergence herbicidal rating ABUTH: 9.0
ABUTH (Velvetleaf); rate 0.0625 kg/ha
  Preemergence herbicidal rating ABUTH: 9.0
ABUTH (Velvetleaf); rate 0.1250 kg/ha
  Preemergence herbicidal rating ABUTH: 9.0
ABUTH (Velvetleaf); rate 0.2500 kg/ha
  Preemergence herbicidal rating ABUTH: 9.0
AMBEL (Ragweed, Common) [4]; rate 0.0156 kg/ha
  Preemergence herbicidal rating AMBEL: 0.0
AMBEL (Ragweed, Common) [4]; rate 0.0625 kg/ha
  Preemergence herbicidal rating AMBEL: 2.0
AMBEL (Ragweed, Common) [4]; rate 0.1250 kg/ha
  Preemergence herbicidal rating AMBEL: 9.0
AMBEL (Ragweed, Common) [4]; rate 0.2500 kg/ha
  Preemergence herbicidal rating AMBEL: 9.0
CASOB (Sicklepod); rate 0.0156 kg/ha
  Preemergence herbicidal rating CASOB: 0.0
CASOB (Sicklepod); rate 0.0313 kg/ha
  Preemergence herbicidal rating CASOB: 0.0
CASOB (Sicklepod); rate 0.0625 kg/ha
  Preemergence herbicidal rating CASOB: 0.0
CASOB (Sicklepod); rate 0.1250 kg/ha
  Preemergence herbicidal rating CASOB: 1.0
CASOB (Sicklepod); rate 0.2500 kg/ha
  Preemergence herbicidal rating CASOB: 1.0
GALAP (Galium); rate 0.0156 kg/ha
  Preemergence herbicidal rating GALAP: 0.0
GALAP (Galium); rate 0.0313 kg/ha
  Preemergence herbicidal rating GALAP: 0.0
GALAP (Galium); rate 0.0625 kg/ha
  Preemergence herbicidal rating GALAP: 0.0
GALAP (Galium); rate 0.1250 kg/ha
  Preemergence herbicidal rating GALAP: 0.0
GALAP (Galium); rate 0.2500 kg/ha
  Preemergence herbicidal rating GALAP: 9.0
ECHCG (Barnyardgrass); rate 0.0156 kg/ha
  Preemergence herbicidal rating ECHCG: 0.0
ECHCG (Barnyardgrass); rate 0.0313 kg/ha
  Preemergence herbicidal rating ECHCG: 0.0
ECHCG (Barnyardgrass); rate 0.0625 kg/ha
  Preemergence herbicidal rating ECHCG: 0.0
ECHCG (Barnyardgrass); rate 0.1250 kg/ha
  Preemergence herbicidal rating ECHCG: 0.0
ECHCG (Barnyardgrass); rate 0.2500 kg/ha
  Preemergence herbicidal rating ECHCG: 3.0
SETVI (Foxtail, Green); rate 0.0156 kg/ha
  Preemergence herbicidal rating SETVI: 0.0
SETVI (Foxtail, Green); rate 0.0313 kg/ha
  Preemergence herbicidal rating SETVI: 0.0
SETVI (Foxtail, Green); rate 0.0625 kg/ha
  Preemergence herbicidal rating SETVI: 0.0
SETVI (Foxtail, Green); rate 0.1250 kg/ha
  Preemergence herbicidal rating SETVI: 9.0
SETVI (Foxtail, Green); rate 0.2500 kg/ha
  Preemergence herbicidal rating SETVI: 9.0
[5]; rate 0.0156 kg/ha
  Preemergence herbicidal rating GLXMAW: 0.0
[5]; rate 0.0313 kg/ha
  Preemergence herbicidal rating GLXMAW: 0.0
[5]; rate 0.0625 kg/ha
  Preemergence herbicidal rating GLXMAW: 0.0
[5]; rate 0.1250 kg/ha
  Preemergence herbicidal rating GLXMAW: 1.0
[5]; rate 0.2500 kg/ha
  Preemergence herbicidal rating GLXMAW: 3.0
CYPSE (Flatsedge); 0.0313 kg/ha
  CYPSE herbicidal effect rating: 0.0
CYPSE (Flatsedge); 0.0625 kg/ha
  CYPSE herbicidal effect rating: 0.0
CYPSE (Flatsedge); 0.1250 kg/ha
  CYPSE herbicidal effect rating: 9.0
CYPSE (Flatsedge); 0.2500 kg/ha
  CYPSE herbicidal effect rating: 9.0
[6]; 0.0313 kg/ha
  SAGPY herbicidal effect rating: 4.0
[6]; 0.0625 kg/ha
  SAGPY herbicidal effect rating: 4.0
[6]; 0.1250 kg/ha
  SAGPY herbicidal effect rating: 4.0
[6]; 0.2500 kg/ha
  SAGPY herbicidal effect rating: 4.0
[7]; Rate 0.0313 kg/ha
  Herbicidal rating ECHORC: 9.0
[7]; Rate 0.0625 kg/ha
  Herbicidal rating ECHORC: 9.0
[7]; Rate 0.1250 kg/ha
  Herbicidal rating ECHORC: 9.0
[7]; Rate 0.2500 kg/ha
  Herbicidal rating ECHORC: 9.0
